Bridge positions count the residues as written; N and C are the ends. Peptide text beside a SMILES is read from it.

Experiment [1] addresses αvβ5 integrin (Homo sapiens, UniProt P06756+P18084). In words: Panning and binding of peptide-displaying phage on αvβ5 integrin. Also noted: The αvβ3, αvβ5 and α5β1 integrins were isolated from human placental extracts; from tissue; host or cells: human placenta. From the text:
In addition, most of the phage-binding activity in the αvβ3 preparation was captured into microliter wells coated with antibodies against the αv or β3 subunits as described previously (Koivunen et al., J. Biol. Chem., 268:20205–10 (1993). The αIIbβ3 integrin was isolated from outdated platelets (Pytela et al., Science, 231:1559–1562 (1986)).
Peptide libraries were constructed in fuse 5 vector (Scott and Smith, Science 249:386–390 (1990)) as described previously (Koivunen et al., J. Cell Biol., 124:373–380 (1994). The CX5C, CX6C, CX7C and CX9 [SEQ ID NOs:39–42, respectively] libraries were prepared using synthetic oligonucleotides containing core sequences TGT(NNK)5TGT, TGT(NNK)6TGT, TGT(NNK)7TGT and TGT(NNK)9 [SEQ ID NOS:43–46, respectively] (N=equal molar mixture of A, C, G, T; K=G or T), respectively. The oligonucleotides were made double-stranded by PCR amplification with 5 cycles, purified and ligated to the N-terminus of pIII gene of fuse 5 vector. […]
Binding of individual cloned phage to integrins was studied in microliter wells as described in Koivunen et al., J. Cell. […] Phage that were bound were determined by their ability to infect F-pilus positive K91kan bacteria. Bacteria were grown overnight in microliter wells in the presence of tetracycline and the absorbance indicative of bacterial growth was read at 600 nm with an ELISA plate reader.

Experiment [2] has as its system α5β1 integrin. The experiment can be described thus: Cell attachment to immobilized […] peptide (B2/α27 vs B2/Cl cells). Format: cell-based, human. From the text: (§1) Cell lines expressing fibronectin-binding integrins were used to determine peptide activities against these integrins in the cell attachment assay described by Ruoslahti et al., Meth. Enzymol., 144:803–831 (1982), which is incorporated herein by reference. Human plasma fibronectin was iodinated as described by Morla and Ruoslahti, J. Cell Biol., 118:421–429 (1992), which is incorporated herein by reference. Vitronectin was obtained from Telios Pharmaceuticals (San Diego, Calif.). […] Peptide was coated on plastic by incubating at 37° C. for 2 hours in phosphate buffered saline containing 0.25% glutaraldehyde to crosslink the peptide. Free binding sites on the plastic were blocked using BSA. Approximately 1×10^5 cells per well were allowed to attach for 1 hour in the presence or absence of competing peptides. Bound cells were quantitated by staining with 0.1% amido black.
In addition to the inhibition of cell attachment to natural ligands, attachment and inhibition assays were performed using the […] [SEQ ID NO:6] peptide as substrate. The microliter well were coated with […] [SEQ ID NO:6] using glutaraldehyde as described above. Briefly, peptide was coated on plastic by incubating at 37° C. for 2 hours in phosphate buffered saline containing 0.25% glutaraldehyde to crosslink the peptide and free binding sites on the plastic were blocked using BSA. The wells were then saturated with BSA followed by the addition of 50,000 B2/α27 or B2/Cl cells in the presence or absence of the indicated inhibitor. […] Bound cells were quantitated by staining with 0.1% amido black.

For experiment [3], the system named is αvβ1 integrin. The experiment can be described thus: Attachment of αvβ1-expressing B2/v7 cells to immobilized […] peptide. Format: cell-based.
From the text: as §1
In addition to the inhibition of cell attachment to natural ligands, attachment and inhibition assays were performed using the […] [SEQ ID NO:6] peptide as substrate. The microliter well were coated with […] [SEQ ID NO:6] using glutaraldehyde as described above. […] Bound cells were quantitated by staining with 0.1% amido black.

α5β1 integrin, sequence (P08648 42-894 limits assumed): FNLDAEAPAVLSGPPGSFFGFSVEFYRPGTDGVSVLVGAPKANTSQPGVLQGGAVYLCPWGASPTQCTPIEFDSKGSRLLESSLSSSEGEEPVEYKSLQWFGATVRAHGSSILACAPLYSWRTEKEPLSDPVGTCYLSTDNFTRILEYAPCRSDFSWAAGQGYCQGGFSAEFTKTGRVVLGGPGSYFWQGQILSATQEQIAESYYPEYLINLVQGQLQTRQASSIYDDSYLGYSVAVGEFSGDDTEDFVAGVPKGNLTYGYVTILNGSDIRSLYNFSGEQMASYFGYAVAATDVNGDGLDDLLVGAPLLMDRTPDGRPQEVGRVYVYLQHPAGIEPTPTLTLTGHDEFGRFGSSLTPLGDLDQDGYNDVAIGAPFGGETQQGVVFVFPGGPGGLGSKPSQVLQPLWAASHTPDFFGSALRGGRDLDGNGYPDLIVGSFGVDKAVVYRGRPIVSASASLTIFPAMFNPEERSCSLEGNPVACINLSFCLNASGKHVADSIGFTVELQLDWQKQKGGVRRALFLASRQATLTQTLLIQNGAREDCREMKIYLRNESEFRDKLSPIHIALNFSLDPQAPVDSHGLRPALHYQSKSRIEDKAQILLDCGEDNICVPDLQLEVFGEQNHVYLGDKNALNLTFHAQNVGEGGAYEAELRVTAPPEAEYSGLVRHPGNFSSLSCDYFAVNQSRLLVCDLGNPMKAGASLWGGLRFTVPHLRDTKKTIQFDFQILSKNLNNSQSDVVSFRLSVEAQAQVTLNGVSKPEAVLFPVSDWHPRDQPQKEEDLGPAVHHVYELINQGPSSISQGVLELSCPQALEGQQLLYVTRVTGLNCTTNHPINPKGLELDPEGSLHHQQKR
α5β1 integrin, sequence (P08648 895-1049 limits assumed): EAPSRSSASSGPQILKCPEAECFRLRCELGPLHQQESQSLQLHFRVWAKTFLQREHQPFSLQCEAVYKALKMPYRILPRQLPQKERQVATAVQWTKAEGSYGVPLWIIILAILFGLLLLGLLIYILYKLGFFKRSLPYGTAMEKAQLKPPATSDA
αvβ5 integrin, sequence (P06756 31-889 limits assumed): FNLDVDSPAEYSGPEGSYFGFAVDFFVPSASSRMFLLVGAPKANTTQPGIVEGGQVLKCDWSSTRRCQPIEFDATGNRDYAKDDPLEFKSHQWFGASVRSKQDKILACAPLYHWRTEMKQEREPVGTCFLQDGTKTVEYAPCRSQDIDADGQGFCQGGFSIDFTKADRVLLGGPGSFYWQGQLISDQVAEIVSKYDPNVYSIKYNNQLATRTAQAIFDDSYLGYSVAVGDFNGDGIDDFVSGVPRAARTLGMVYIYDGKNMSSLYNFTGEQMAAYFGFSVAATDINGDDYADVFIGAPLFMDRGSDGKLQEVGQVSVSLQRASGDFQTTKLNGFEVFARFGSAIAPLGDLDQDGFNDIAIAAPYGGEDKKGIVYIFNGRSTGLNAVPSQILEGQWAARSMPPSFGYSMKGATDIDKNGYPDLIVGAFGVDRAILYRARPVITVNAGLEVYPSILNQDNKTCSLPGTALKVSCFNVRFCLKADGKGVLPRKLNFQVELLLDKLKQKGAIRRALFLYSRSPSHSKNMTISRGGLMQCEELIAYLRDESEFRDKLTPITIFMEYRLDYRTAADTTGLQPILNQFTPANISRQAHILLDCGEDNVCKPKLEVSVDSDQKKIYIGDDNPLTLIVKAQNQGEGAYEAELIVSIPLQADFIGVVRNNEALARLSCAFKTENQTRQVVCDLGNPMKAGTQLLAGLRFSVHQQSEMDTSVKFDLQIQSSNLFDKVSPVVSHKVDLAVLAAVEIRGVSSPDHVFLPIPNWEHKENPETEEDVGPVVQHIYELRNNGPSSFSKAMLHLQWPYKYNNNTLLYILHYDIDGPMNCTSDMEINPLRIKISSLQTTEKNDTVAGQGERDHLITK
αvβ5 integrin, sequence (P06756 891-1048 partner limits assumed): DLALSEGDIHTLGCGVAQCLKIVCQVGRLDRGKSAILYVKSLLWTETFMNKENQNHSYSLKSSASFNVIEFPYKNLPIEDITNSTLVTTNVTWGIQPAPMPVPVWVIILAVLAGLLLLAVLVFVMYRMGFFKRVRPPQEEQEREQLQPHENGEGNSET
αvβ5 integrin, sequence (P18084 24-799): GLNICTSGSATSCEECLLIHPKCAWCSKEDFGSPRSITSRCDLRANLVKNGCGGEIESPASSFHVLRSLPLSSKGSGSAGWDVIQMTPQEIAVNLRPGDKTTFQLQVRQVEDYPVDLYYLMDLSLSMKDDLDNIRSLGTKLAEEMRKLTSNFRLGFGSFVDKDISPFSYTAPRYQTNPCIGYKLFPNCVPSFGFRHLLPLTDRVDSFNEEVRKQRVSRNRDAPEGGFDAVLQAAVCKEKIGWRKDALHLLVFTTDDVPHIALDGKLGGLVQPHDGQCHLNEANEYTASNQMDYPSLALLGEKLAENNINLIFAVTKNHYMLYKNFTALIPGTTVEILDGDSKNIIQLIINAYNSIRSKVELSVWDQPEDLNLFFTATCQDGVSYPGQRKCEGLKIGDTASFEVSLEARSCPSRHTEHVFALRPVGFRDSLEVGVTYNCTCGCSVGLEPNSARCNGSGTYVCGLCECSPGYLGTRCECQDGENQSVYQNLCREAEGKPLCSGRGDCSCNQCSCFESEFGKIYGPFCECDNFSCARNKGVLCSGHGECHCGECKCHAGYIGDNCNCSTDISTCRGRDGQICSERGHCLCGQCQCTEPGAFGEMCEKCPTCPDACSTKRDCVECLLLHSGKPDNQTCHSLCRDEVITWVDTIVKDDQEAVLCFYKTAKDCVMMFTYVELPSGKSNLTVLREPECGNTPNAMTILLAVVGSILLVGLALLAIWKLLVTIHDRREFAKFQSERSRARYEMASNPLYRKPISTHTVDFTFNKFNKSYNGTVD

As for `C[C@H](N)C(=O)N[C@H]1CSSC[C@@H](C(=O)NCC(=O)O)NC(=O)[C@H](Cc2ccccc2)NC(=O)[C@@H]2CSSC[C@H](NC(=O)[C@H](CC(=O)O)NC1=O)C(=O)N[C@@H](CCCNC(=N)N)C(=O)NCC(=O)N[C@@H](CC(=O)O)C(=O)N2` (H-ACDCRGDCFCG-OH; disulfide 2-10, 4-8), the “integrin preference of phage expressing the peptide” value in experiment [1] (phage attachment experiments) was “bound preferentially to the αvβ5 integrin”. Further, the “binding of peptide-displaying phage to the αvβ5 integrin” value in experiment [1] (phage-displayed sequence) is “bound strongly”.

As to GACRRETAWACGA, the “promotion of cell adhesion by immobilized peptide” value in experiment [2] (B2/α27 compared with B2/Cl cells, FIG. 8) was “promoted α5β1-mediated adhesion”. Moreover, the “attachment of cell lines lacking these integrins or expressing non-human α5β1 to immobilized peptide” value in experiment [2] (immobilized peptide) is listed as “did not attach”. Moreover, the “inhibition of B2/α27 attachment to immobilized RRETAWA-containing peptide” value in experiment [2] (inhibitor at 1 mM, FIG. 8) is “inhibited”. For the same compound, in experiment [3], the “peptide coating concentration required to produce significant attachment” value was 1 mg/mL.

The values above are taken from patent publication US7067619B2, “Integrin-binding peptides” (La Jolla Cancer Research Foundation, priority 1993, dated 2006).
